# According to publication PMC6028453, “BrlR from Pseudomonas aeruginosa is a receptor for both cyclic di-GMP and pyocyanin” (Nature Communications, 2018):
# T1: BrlR (UniProt Q9HUT5 1-270)
# T1 sequence: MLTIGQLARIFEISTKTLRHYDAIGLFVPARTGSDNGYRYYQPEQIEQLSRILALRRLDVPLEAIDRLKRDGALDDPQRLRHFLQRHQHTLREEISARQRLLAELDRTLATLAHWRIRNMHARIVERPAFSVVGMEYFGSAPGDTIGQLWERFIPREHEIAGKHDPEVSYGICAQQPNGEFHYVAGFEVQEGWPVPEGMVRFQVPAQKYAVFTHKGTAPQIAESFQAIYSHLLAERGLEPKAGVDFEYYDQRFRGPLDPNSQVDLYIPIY
# B1: BrlR (PA4878) (natural protein)
# chain: MLTIGQLARIFEISTKTLRHYDAIGLFVPARTGSDNGYRYYQPEQIEQLSRILALRRLDVPLEAIDRLKRDGALDDPQRLRHFLQRHQHTLREEISARQRLLAELDRTLATLAHWRIRNMHARIVERPAFSVVGMEYFGSAPGDTIGQLWERFIPREHEIAGKHDPEVSYGICAQQPNGEFHYVAGFEVQEGWPVPEGMVRFQVPAQKYAVFTHKGTAPQIAESFQAIYSHLLAERGLEPKAGVDFEYYDQRFRGPLDPNSQVDLYIPIY
# notes: also called apo-BrlR; BrlR WT; source: E. coli BL21 DE3, purified (Ni-NTA, tag cleaved by UlpI, Source Q, Superdex 200); not shown: His6-SUMO, N-terminal, cleaved
# B2: PmexA (dsDNA)
# DNA 1: ACACCTATGAATGTAAGTATTTTGCCTGCCTTCTTCGAGCCGGTGCAGCGCCTTCACGCTGCATCGGCCGCTTTCGCT
# DNA 2: AGCGAAAGCGGCCGATGCAGCGTGAAGGCGCTGCACCGGCTCGAAGAAGGCAGGCAAAATACTTACATTCATAGGTGT
# B3: PmexE (dsDNA)
# DNA 1: AATCTCGTCGTTCGATTAGTTCCCTGCCGGAGCAGCCCGCAGACTTCGCCAATCCCGAAAAACCGACTGGCGGAGT
# DNA 2: ACTCCGCCAGTCGGTTTTTCGGGATTGGCGAAGTCTGCGGGCTGCTCCGGCAGGGAACTAATCGAACGACGAGATT
# Tests used:
# [1] = biological target: T2, BrlR (Pseudomonas aeruginosa, UniProt Q9HUT5); experiment: Surface plasmon resonance (SPR) analysis; assay type: binding; conditions: SPR, immobilized BrlR; for Kd: steady state, 25 °C
# T2 construct: His6-SUMO (N, cleaved yes); made in house; host or cells: E. coli BL21 DE3
# Procedure: The binding affinity of diverse toxic compounds for BrlR were investigated by SPR using a BIAcore-T200 apparatus (GE Healthcare). The ligand, BrlR (20 μM in 10 mM sodium acetate, pH 4.5), was immobilized on an activated CM5 sensor chip by amine coupling (BIAcore) with 4400 response units (RU), and the unreacted sites were blocked with 1.0 M ethanolamine–HCl (pH 8.5). Steady-state binding analysis was performed with injections of different molecules at different concentrations over the immobilized BrlR surface at a flow rate of 20 μL min^−1 at 25 °C. Association was measured for 180 s, followed by 120 s of dissociation in running buffer (20 mM Hepes pH 7.5, 150 mM NaCl). The sensorgrams for specific interactions were obtained by subtracting the reference unimmobilized flow cell response from that of the sample. Since BrlR only has one binding site for pyocyanin or other toxic compounds (Fig. 5a–f), the kinetic analysis of the sensorgrams from analyte interaction with the immobilized BrlR was performed by fitting the binding curves to a 1:1 binding model. To determine the steady state KD values, equilibrium responses were plotted against analyte concentrations, and the resulting curves were fitted to the steady state model in the BIAevaluation software package, version 3.0 (GE Healthcare).
# [2] = tested on: brlR transcription; experiment: qRT-PCR of brlR transcript; assay type: cell-based, P. aeruginosa PAO1; conditions: ΔphzMSH strain still produces PCA; strain PAO1
# Procedure: PAO1 WT strains were grown under different conditions. For c-di-GMP effects, overexpression of PA4843 in PAO1 (PAO1/pHERD20T-PA4843) relative to WT cells (PAO1/ pHERD20T) was determined. When P. aeruginosa strains entered mid-log phase, arabinose was added to induce gene expression. To test pyocyanin’s effect, a P. aeruginosa PAO1 WT strain cells with high pyocyanin production was determined relative to a ΔphzA1-G1/phzA2-G2 strain not producing phenazine and a ΔphzMSH strain not producing pyocyanin.
# Total RNA was extracted using a MiniBEST Universal RNA Extraction Kit (TaKaRa) and cDNA synthesis was performed using a PrimeScript RT reagent Kit (TaKaRa). Primers for RT-PCR listed in Supplementary Table 1 were designed using the program PrimerExpress (Applied Biosystems). The RT-PCR reactions were performed on a CFX96 Real-Time PCR Detection System (Bio-Rad) using SYBR Premix Ex Taq™ (TaKaRa). Expression of the target genes was normalized to the expression of 16 S RNA. The relative transcript abundance was calculated according to the 2^−ΔΔCt method. Five biological replicates were performed per sample. The data were analyzed with a one-tailed t-test (***P ≤ 0.001).
# [3] = biological target: T3, BrlR-DNA binding (PbrlR) (Pseudomonas aeruginosa, UniProt Q9HUT5); experiment: EMSA, wild-type BrlR with PbrlR DNA; assay type: biochemical; conditions: wild-type BrlR, increasing concentrations of compound
# T3 construct: His6-SUMO (N, cleaved yes); made in house; host or cells: E. coli BL21 DE3
# Procedure: A 6-carboxy-fluorescein (FAM)-labeled 36-bp brlR promoter DNA (PbrlR) or 80-bp mexA/mexE promoter DNA (PmexA/PmexE) probes (~0.375 pmol), BrlR protein and varying amounts of inducers were incubated in binding buffer (10 mM Tris HCl [pH 7.4], 50 mM KCl, 1 mM DTT, […] and 5 ng/mL poly [dI-dC]) for 60 min at 25 °C. Finally, glycerol was added to a concentration of 6.5%. The samples were subjected to a 5% polyacrylamide gel electrophoresis and run in 0.5 × Tris-borate-EDTA buffer at 80 V for 1 h at room temperature. Imaging and data analyses were performed using a Typhoon Scanner (GE Healthcare) and Imagequant software. The probes used are listed in Supplementary Table 1.
# [4] = biological target: T2, BrlR; experiment: Fluorescence polarization (FP) binding assay, wild-type BrlR; conditions: 1 nM fluorescent ligand, 25 °C
# From the text: The most striking feature of the BrlR–c-di-GMP complex is the c-di-GMP-binding mode. The DNA-binding domain contains two separate c-di-GMP-binding sites, and shares a mutually intercalated c-di-GMP dimer in a stacking conformation with a crystallographic symmetry related binding site (Fig. 2a–c). […] The interactions stabilizing the c-di-GMPs are different for the two binding sites (Fig. 2d, e, and details are described in Supplementary Note 1). […] This structural feature allows us to perform fluorescence polarization (FP)-based binding assays[19],[23],[24] by using a fluoresceinated c-di-GMP analog, 2′-Fluo-AHC-c-di-GMP (F-c-di-GMP), containing a fluorophore attached to one of the 2′-ribose hydroxyls (Fig. 2f).
# F-c-di-GMP and F-c-di-AMP both contain a fluorophore at one of the 2′-ribose hydroxyls of c-di-GMP and c-di-AMP, respectively (Fig. 2f). To measure the binding of c-di-GMP and c-di-AMP to BrlR variants, 1 nM F-c-di-GMP or F-c-di-AMP was incubated with increasing amounts of indicated BrlR WT, BrlR mutation, or BrlR-C in reaction buffer (25 mM HEPES, 100 mM NaCl, pH 7.5) at 25 °C for 20 min. 1 nM fluorescein was incubated with BrlR WT in the same reaction buffer at 25 °C. FP measurements were conducted on a Synergy 4 Microplate Reader (BioTek) at 25 °C. All experiments were performed in triplicate. The curves were fitted to deduce binding affinities by GraphPad Prism 5.
# [5] = biological target: T4, BrlR-C (Pseudomonas aeruginosa, UniProt Q9HUT5); experiment: FP competition experiment, BrlR-C; assay type: binding; conditions: 550 μM BrlR-C, 1 nM F-c-di-GMP
# T4 construct: His6 (cleaved yes); made in house; host or cells: E. coli (same protocol as BrlR, induction at 18 °C)
# Procedure: Supplementary Figure 11: FP analyses of F-c-di-GMP binding to BrlR-C. (a) Isotherms of BrlR-C binding to F-c-di-GMP. The binding experiment was carried out at 25 °C in a buffer containing 150 mM NaCl, 25 mM Tris·HCl (pH 7.5), and 1 nM F-c-di-GMP. Increasing concentrations of BrlR-C were titrated into the reaction mixture to obtain the binding isotherms. (b) Fluorescence polarization competition experiment of BrlR-C. As a control, 550 μM BrlR-C was added to the reaction tube containing 1 nM F-c-di-GMP, and different competitors were respectively added in the solution and the values of millipolarization were recorded.
# (1 picture or pasted object on this page, not shown here)
# [6] = tested on: P. aeruginosa PAO1; experiment: Planktonic antibiotic susceptibility testing, PAO1; assay type: cell-based, Pseudomonas aeruginosa; conditions: for decrease of CFU number (log reduction): PAO1, 50 μg/ml tobramycin 1 h; for reduction in CFU number: cells harboring pHERD20T-PA2133 (low c-di-GMP), 50 μg/ml tobramycin 1 h
# Procedure: To determine the role of pyocyanin in antimicrobial susceptibility, P. aeruginosa strains (Supplementary Table 2) were grown at 37 °C in 20-fold diluted LB medium supplemented with or without 0.2 mM pyocyanin, which was purified from stationary phase cultures of PAO1. Tobramycin was added to the mid-log phase (OD600 = 0.8) cells suspension to a final concentration of 50 μg/ml; after 1 h, the broth was serially diluted and spread-printed onto LB agar (medium containing 300 μg/ml carbenicillin was used for the cells harboring plasmid) to determine the cell viability via CFU counts. The cell suspensions without tobramycin were set as controls. Susceptibility is expressed as a logarithmic reduction in CFU amount. The data were analyzed with a one-tailed t-test (***P ≤ 0.001).
# [7] = biological target: the molecule itself; experiment: crystal structure; apo-BrlR, 3.1 Å, space group P65, four BrlR molecules in the asymmetric unit; crystals from 1.8 M sodium acetate pH 7.0, 0.1 M Bis-Tris propane pH 7.0, 20 °C
# [8] = biological target: T1, BrlR; experiment: EMSA; pyocyanin (enhances); conditions: protein: recombinant; tags: none (His6-SUMO removed); chain copies: 4; label: 5' FAM on strand 1; blunt
molecule,measurement,setting,value
Nc1ncnc2c1ncn2[C@@H]1O[C@H](COP(=O)(O)O)[C@@H](O)[C@H]1O [AMP],binding to BrlR in SPR (in words),[1],does not bind
CNC(C)C1CCC(N)C(OC2C(N)CC(N)C(OC3OCC(C)(O)C(NC)C3O)C2O)O1 (centres unmarked) [Gentamicin],Kd,[1],~470 µM
"O=C(O)c1cccc2nc3ccccc3nc12 [PCA, phenazine-1-carboxylic acid]",effect on brlR transcription,[2],could not up-regulate
Nc1ncnc2c1ncn2[C@@H]1O[C@@H]2COP(=O)(O)O[C@H]3[C@@H](O)[C@H](n4cnc5c(N)ncnc54)O[C@@H]3COP(=O)(O)O[C@H]2[C@H]1O [c-di-AMP],effect on BrlR-PbrlR DNA binding (in words),[3],significantly promoted
O=C1OC2(c3ccc(O)cc3Oc3cc(O)ccc32)c2ccccc21 [fluorescein],Kd,[4],33.6 ± 1.6 µM
CCn1cc(C(=O)O)c(=O)c2cc(F)c(N3CCNCC3)cc21 [norfloxacin],binding to BrlR in SPR (in words),[1],signals were not sufficiently high
CN(C)[C@@H]1C(O)=C(C(N)=O)C(=O)[C@@]2(O)C(O)=C3C(=O)c4c(O)cccc4[C@@](C)(O)[C@H]3C[C@@H]12 [tetracycline],binding to BrlR in SPR (in words),[1],signals were not sufficiently high
NC[C@H]1O[C@H](O[C@H]2[C@H](O)[C@@H](O[C@H]3O[C@H](CO)[C@@H](O)[C@H](N)[C@H]3O)[C@H](N)C[C@@H]2N)[C@H](N)C[C@@H]1O [tobramycin],Kd,[1],640 µM
same,competition with F-c-di-GMP binding to BrlR-C,[5],outcompeted
same,decrease of CFU number (log reduction),[6]; absence of pyocyanin,~ 3.4 order of magnitude
same,decrease of CFU number (log reduction),[6]; presence of 0.2 mM pyocyanin,~ 1.5 order of magnitude
same,reduction in CFU number,[6]; with addition of pyocyanin,1.7 order of magnitude
same,reduction in CFU number,[6]; without pyocyanin,4.3 order of magnitude
same,effect on BrlR-PbrlR DNA binding (in words),[3],did not result in an observable difference
B1,stoichiometry N,[7],4
B2,binding result,[8],binds
B3,binding result,[8],binds
